The conditions of this data set: Crystal; visual observation.

± gives the expanded uncertainty stated by the source.

On to `C=CC(=O)O` [propenoic acid], for which the Normal melting temperature amounted to 12.8 ± 0.39 °C. The value for `CCC(=O)O` [propanoic acid] was -20.60 ± 0.39 °C.

For the origin of these results see the NIST ThermoML archive (doi:10.1021/je201193d).
